Counter-ions that a name gives are not always drawn.
Legend:
GLP-1 receptor = biological target: T1, GLP-1 receptor (Homo sapiens, UniProt P43220); assay: cAMP detection assay of agonistic effect in HEK293 cells with high expression of hGLP-1R; format: cell-based; details: agonistic effect, cAMP, HEK293 cells with high expression of hGLP-1R; read-out: EC50
T1 construct: host or cells: HEK293
Protocol: The cells were constructed by Wuxi New Drug Development Co., Ltd. Shanghai.
The compound was prepared with DMSO to a working concentration of 100µM or 10µM. 10 points of 4-fold dilution (maximum concentration of 1000nM or 100nM after dilution) was done with Bravo V11.
The compound to be tested was diluted 4 times with Bravo to obtain 10 concentrations and the initial concentration was 100µM by Bravo V11. The initial concentration was 100µM.

[1] = Human liver microsome stability test; format: in vitro ADME; details: pH 7.4; human liver microsomes 0.5 mg/mL, 1 µM compound, NADPH, 37 °C
Protocol: Preparation of compound working solutions: A high-concentration stock solution of the subject and control drug verapamil powder was prepared in DMSO and diluted to a working solution of 100 µM with DMSO before use, with a final concentration of 1 µM of the subject and verapamil.
Preparation of phosphate buffer salt (100 mM, pH 7.4): 7.098 g of disodium hydrogen phosphate was weighed and dissolved ultrasonically in 500 mL of purified water as solution A. 3.400 g of potassium dihydrogen phosphate was weighed and dissolved ultrasonically in 250 mL of purified water as solution B. Solution B was added to the inside of solution A to give a pH of 7.4.
Preparation of 10 mM NADPH: An appropriate amount of NADPH is now weighed before the experiment and a working solution of 10 mM concentration is prepared from phosphate solution.
Preparation of the incubation system: The incubation system was prepared according to the following table, and the incubation system was preheated in a water bath at 37 °C for 10 minutes before use.
Transfer 25 µL of NADPH or phosphate buffer salt to the above incubation system and add 2.5 µL of 100 µM subject or verapamil. For NADPH-added samples, double-parallel preparations were performed; for NADPH-negative samples, single-parallel preparations were performed.
30 µL of the suspension was taken at 0.5, 5, 15, 30, and 60 min, respectively. The reaction was terminated by adding 150 µL of acetonitrile containing the internal standard and vortexed for 10 min.
This was followed by centrifugation at 3220 g for 40 min for protein precipitation. 100 µL of supernatant was transferred to the injection plate and mixed with 100 µL of pure water for UPLC-MS/MS analysis.
All data calculations were performed by Microsoft Excel software. Peak areas were detected by extracted ion mapping. The in vitro half-life (t1/2) of the parent drug was assayed by fitting the natural logarithm of the percentage elimination of the parent drug linearly with time.
The in vitro half-life (t1/2) was calculated by slope: t1/2 = 0.693 / k
The in vitro clearance (in µL/min/mg) was calculated using the following formula: CLint =0.693/ t1/2 * (Incubation system volume (μL) / protein content (mg)) [formula]
Table 3 the experimental results of human liver microsome of the compounds provided in some examples of the present invention

[2] = Pharmacokinetic study in rats (intravenous or gavage, plasma LC-MS/MS); format: in vivo; details: SD rats; for F: po 5 mg/kg versus iv 1 mg/kg; for AUC(0-t) / Cmax / Tmax / half-life: rat, plasma
Protocol: SD rats: male, 6-8 weeks old, weighing 200-300 g, purchased from SPF ( Beijing ) Biotechnology Co.,Ltd..
At each PK sampling point, 200 µL of whole blood was collected into EDTA-K2 anticoagulant blood tubes and centrifuged at 4°C for 30 min to obtain plasma. Whole blood samples were placed on wet ice before centrifugation. All collected plasma samples were stored on dry ice or frozen until analyzed.
Approximately1 mg of the compound of the present application was weighed and dissolved in DMSO, vortexed and sonicated to obtain a 1 mg/mL standard stock solution. The standard stock solution was diluted with 50% aqueous acetonitrile to obtain standard working solutions with concentrations of 5, 10, 20, 50, 100, 500, 1000, 5000 and 10000 ng/mL. QC working solutions with concentrations of 10, 20, 500 and 8000 ng/mL were prepared using the same dilution method. These QC samples were prepared on the day of analysis in the same way as the standard curve samples.5 µL of standard working solution with concentrations of (5, 10, 20, 50, 100, 500, 1000, 5000 and 10000 ng/mL) was added to 50 µL of blank SD rat plasma to obtain a total volume of 55 µL with concentrations of 0.5-1000 ng/mL (0.5, 1, 2, 5, 10, 50, 100, 500, and 1000 ng/mL) of standard curve samples. QC samples with concentrations of (1 ng/ml (low-1) and 2 ng/ml (low-2), 50 ng/ml (medium), 800 ng/ml (high)) were configured separately.
55 µL of standard samples, 55 µL of QC samples or 55 µL of unknown samples (50 µL of plasma samples added to 5 µL of 50% aqueous acetonitrile) were added to 200 µL of acetonitrile containing an internal standard (dexamethasone) to precipitate proteins. […] The supernatant was taken and diluted 3-fold with water, and 5 µL of the supernatant dilution was injected into the LC-MS/MS system for quantitative analysis under the following assay conditions:
Column: HALO 90A Phenly-Hexyl, 2µm 2.1×30mm.
Pharmacokinetic parameters were calculated by the […] of Phoenix TM Winnonlin® 8.3 software.

T1 sequence (P43220 24-463): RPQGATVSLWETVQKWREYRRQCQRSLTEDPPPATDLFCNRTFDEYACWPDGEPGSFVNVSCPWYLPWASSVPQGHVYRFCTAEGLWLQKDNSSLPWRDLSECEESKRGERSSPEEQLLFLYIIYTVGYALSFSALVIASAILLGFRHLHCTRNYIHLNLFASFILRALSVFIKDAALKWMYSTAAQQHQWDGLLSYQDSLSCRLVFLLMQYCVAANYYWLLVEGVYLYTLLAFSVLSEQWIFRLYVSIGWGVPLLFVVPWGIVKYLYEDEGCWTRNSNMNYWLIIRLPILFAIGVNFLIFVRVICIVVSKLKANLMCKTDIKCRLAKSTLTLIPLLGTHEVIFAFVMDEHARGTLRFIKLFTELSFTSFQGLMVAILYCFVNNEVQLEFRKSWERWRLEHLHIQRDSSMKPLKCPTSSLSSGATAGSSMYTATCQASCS

Question: With `CCn1cncc1Cn1c(CC2CC=C(c3cccc(OCc4ccc(Cl)c5cc(F)oc45)n3)CC2)nc2ccc(C(=O)O)cc21` (stereo not drawn) [Compound 29, 2-((4-(6-((4-chloro-2-fluorobenzofuran-7-yl)methoxy)pyridin-2-yl)cyclohex-3-en-1-yl)methyl)-1-((1-ethyl-1H-imidazol-5-yl)methyl)-1H-benzo[d]imidazole-6-carboxylic acid hydrochloride] as the molecule, how does the EC50 (GLP-1 receptor) read?
Answer: 0.22 nM

Question: Which half-life at 1 µM [1] does the source give for `N#CCC1(Cn2c(CC3CC=C(c4cccc(OCc5ccc(Cl)c6cc(F)oc56)n4)CC3)nc3ccc(C(=O)O)cc32)CC1` (stereo not drawn) [Compound 28, 2-((4-(6-((4-chloro-2-fluorobenzofuran-7-yl)methoxy)pyridin-2-yl)cyclohex-3-en-1-yl)methyl)-1-((1-(cyanomethyl)cyclopropyl)methyl)-1H-benzo[d]imidazole-6-carboxylic acid] here?
Answer: > 3.08 h

Question: What about the EC50 (GLP-1 receptor) of the same molecule?
Answer: 0.07 nM

Question: Which F [2] does the source give for `O=C(O)c1ccc2nc(CC3CC=C(c4cccc(OCc5ccc(Cl)c6cc(Cl)oc56)n4)CC3)n(C[C@@H]3CCO3)c2c1` (stereo partly drawn) [Compound 25, 2-((4-(6-((2,4-dichlorobenzofuran-7-yl)methoxy)pyridin-2-yl)cyclohex-3-en-1-yl)methyl)-1-(((S)-oxetan-2-yl)methyl)-1H-benzo[d]imidazole-6-carboxylic acid] here?
Answer: 38.8%

Question: And the AUC(0-t) ([2]; male, iv, 1 mg/kg)?
Answer: 1250 ng·h/mL

Question: What about the Cmax ([2]; male, iv, 1 mg/kg) of the same molecule?
Answer: 1080 ng/mL

Question: And the Tmax ([2]; male, iv, 1 mg/kg)?
Answer: 0.083 h

Question: And the half-life ([2]; male, iv, 1 mg/kg)?
Answer: 2.57 h

Question: What about the AUC(0-t) ([2]; male, po, 5 mg/kg) of the same molecule?
Answer: 2440 ng·h/mL

Question: And the Cmax ([2]; male, po, 5 mg/kg)?
Answer: 460 ng/mL

Question: What about the Tmax ([2]; male, po, 5 mg/kg) of the same molecule?
Answer: 4 h

Question: What about the half-life ([2]; male, po, 5 mg/kg) of the same molecule?
Answer: 5.29 h

Question: For `O=C(O)c1ccc2nc(CC3CC=C(c4ncc(F)c(OCc5ccc(Cl)c6ccoc56)n4)CC3)n(C[C@@H]3CCO3)c2c1` (stereo partly drawn) [Compound 3, 2-((4-(4-((4-chlorobenzofuran-7-yl)methoxy)-5-fluoropyrimidin-2-yl)cyclohex-3-en-1-yl)methyl)-1-(((S)-oxetan-2-yl)methyl)-1H-benzo[d]imidazole-6-carboxylic acid], which half-life at 1 µM [1] is on record?
Answer: 1.84 h

Question: And the EC50 (GLP-1 receptor)?
Answer: 0.26 nM

Question: Which EC50 (GLP-1 receptor) does the source give for `O=C(O)c1ccc2nc(C[C@H]3CC=C(c4cccc(OCc5ccc(Cl)c6cc(F)oc56)n4)CC3)n(C[C@@H]3CCO3)c2c1` [Compound 36B, 2-(((R)-4-(6-((4-chloro-2-fluorobenzofuran-7-yl)methoxy)pyridin-2-yl)cyclohex-3-en-1-yl)methyl)-1-(((S)-oxetan-2-yl)methyl)-1H-benzo[d]imidazole-6-carboxylic acid] here?
Answer: 0.22 nM

Question: With `O=C(O)c1cc2c(nc(CC3CC=C(c4cccc(OCc5ccc(Cl)c6cc(F)oc56)n4)CC3)n2C[C@@H]2CCO2)s1` (stereo partly drawn) [Compound 8, 2-((4-(6-((4-chloro-2-fluorobenzofuran-7-yl)methoxy)pyridin-2-yl)cyclohex-3-en-1-yl)methyl)-1-(((S)-oxetan-2-yl)methyl)-1H-thieno[2,3-d]imidazole-5-carboxylic acid] as the molecule, how does the half-life at 1 µM [1] read?
Answer: 3 h

Question: With `N#CCC1(Cn2c(C[C@H]3CC[C@H](c4cccc(OCc5ccc(Cl)c6cc(F)oc56)n4)CC3)nc3ccc(C(=O)O)cc32)CC1` [Compound 43, 2-(((1r,4r)-4-(6-((4-chloro-2-fluorobenzofuran-7-yl)methoxy)pyridin-2-yl)cyclohexyl)methyl)-1-((1-(cyanomethyl)cyclopropyl)methyl)-1H-benzo[d]imidazole-6-carboxylic acid] as the molecule, how does the EC50 (GLP-1 receptor) read?
Answer: 0.2 nM

Question: Which EC50 (GLP-1 receptor) does the source give for `O=C(O)c1ccc2nc(CC3CCC(c4cccc(OCc5ccc(Cl)c6cc(F)oc56)n4)CC3)n(C[C@@H]3CCO3)c2c1` (stereo partly drawn) [Compound 7, (5)-2-((4-(6-((4-chloro-2-fluorobenzofuran-7-yl)methoxy)pyridin-2-yl)cyclohexyl)methyl)-1-(oxetan-2-ylmethyl)-1H-benzo[d]imidazole-6-carboxylic acid] here?
Answer: 0.22 nM

Question: For `O=C(O)c1ccc2nc(CC3CC=C(c4ncc(F)c(OCc5ccc(Cl)c6cc(F)oc56)n4)CC3)n(C[C@@H]3CCO3)c2c1` (stereo partly drawn) [Compound 31], which half-life at 1 µM [1] is on record?
Answer: 2.77 h

Question: And the EC50 (GLP-1 receptor)?
Answer: 0.19 nM

Question: Which half-life at 1 µM [1] does the source give for `O=C(O)c1ccc2nc(CC3CC=C(c4cccc(OCc5ccc(Cl)c6cc(F)oc56)n4)CC3)n(C[C@@H]3CCO3)c2n1` (stereo partly drawn) [Compound 6, 2-((4-(6-((4-chloro-2-fluorobenzofuran-7-yl)methoxy)pyridin-2-yl)cyclohex-3-en-1-yl)methyl)-3-(((S)-oxetan-2-yl)methyl)-3H-imidazo[4,5-b]pyridine-5-carboxylic acid] here?
Answer: 1.86 h

Question: Which half-life at 1 µM [1] does the source give for `O=C(O)c1ccc2nc(CC3CC=C(c4ncc(F)c(OCc5ccc(Cl)c6cc(F)oc56)n4)CC3)n(C[C@@H]3CCO3)c2n1` (stereo partly drawn) [Compound 5, 2-((4-(4-((4-chloro-2-fluorobenzofuran-7-yl)methoxy)-5-fluoropyrimidin-2-yl)cyclohex-3-en-1-yl)methyl)-3-(((S)-oxetan-2-yl)methyl)-3H-imidazo[4,5-b]pyridine-5-carboxylic acid] here?
Answer: > 3.08 h

Question: Which EC50 (GLP-1 receptor) does the source give for `O=C(O)c1cc(F)c2nc(C[C@H]3CC[C@H](c4cccc(OCc5ccc(Cl)c6cc(F)oc56)n4)CC3)n(C[C@@H]3CCO3)c2c1` [Compound 39, 2-(((1r,4S)-4-(6-((4-chloro-2-fluorobenzofuran-7-yl)methoxy)pyridin-2-yl)cyclohexyl)methyl)-4-fluoro-1-(((S)-oxetan-2-yl)methyl)-1H-benzo[d]imidazole-6-carboxylic acid] here?
Answer: 0.15 nM

Question: For `O=C(O)c1ccc2nc(CC3CC=C(c4cccc(OCc5ccc(Cl)c6ccoc56)n4)CC3)n(C[C@@H]3CCO3)c2n1` (stereo partly drawn) [Compound 34, 2-((4-(6-((4-chlorobenzofuran-7-yl)methoxy)pyridin-2-yl)cyclohex-3-en-1-yl)methyl)-3-(((S)-oxetan-2-yl)methyl)-3H-imidazo[4,5-b]pyridine-5-carboxylic acid], which EC50 (GLP-1 receptor) is on record?
Answer: 0.2 nM

Question: With `O=C(O)c1ccc2nc(C[C@H]3CC[C@H](c4cccc(OCc5ccc(Cl)c6cc(Cl)oc56)n4)CC3)n(C[C@@H]3CCO3)c2c1` [Compound 38B, 2-(((1r,4S)-4-(6-((2,4-dichlorobenzofuran-7-yl)methoxy)pyridin-2-yl)cyclohexyl)methyl)-1-(((S)-oxetan-2-yl)methyl)-1H-benzo[d]imidazole-6-carboxylic acid] as the molecule, how does the F [2] read?
Answer: 21.1%

Question: And the AUC(0-t) ([2]; iv, 1 mg/kg)?
Answer: 3940 ng·h/mL

Question: And the Cmax ([2]; iv, 1 mg/kg)?
Answer: 5280 ng/mL

Question: And the Tmax ([2]; iv, 1 mg/kg)?
Answer: 0.083 h

Question: What about the half-life ([2]; iv, 1 mg/kg) of the same molecule?
Answer: 1.45 h

Question: And the AUC(0-t) ([2]; po, 5 mg/kg)?
Answer: 4130 ng·h/mL

Question: What about the Cmax ([2]; po, 5 mg/kg) of the same molecule?
Answer: 1400 ng/mL

Question: And the Tmax ([2]; po, 5 mg/kg)?
Answer: 1.17 h

Question: And the half-life ([2]; po, 5 mg/kg)?
Answer: 2.62 h

From patent EP4491625A1, “BENZO BICYCLIC COMPOUND, AND PREPARATION METHOD AND APPLICATION THEREOF” (Guangzhou Unirise Pharmaceutical Co., Ltd., priority 2022, dated 2023)
